Assay results reported in publication PMC9518609, “Design and synthesis of new trimethoxylphenyl-linked combretastatin analogues loaded on diamond nanoparticles as a panel for ameliorated solubility and antiproliferative activity” (Journal of Enzyme Inhibition and Medicinal Chemistry, 2022).

Tests used:
MDA-MB-231 = experiment: MTT cytotoxic activity against breast MDA-MB-231 cancer cell line; assay type: cell-based; conditions: Homo sapiens, MDA-MB-231; MTT assay, 24 h treatment
From the text: All the synthesised compounds were screened for their cytotoxic activity against breast MDA-MB-231 cancer cell line and compounds 6 and 12 against breast MCF-10A cell line taking CA-4 as a positive control for the analysis. The in vitro cytotoxicity results of the prepared compounds were systematised in Table 1. […] Structurally, the prepared molecules contain three structural variations; including rotatable hydrazide derivatives, the core exchange with imidazolone ring, and the ring expansion with triazinone motif. […] It is noticed that directly attached benzene ring to triazinone scaffold (compound 6) or bioisosteric group (thiazolyl ester) as in compound 12, may contribute to the astonishing cytotoxicity against breast MDA-MB-231 cancer cells.
To measure the cytotoxic activity of the synthesised derivatives 2a–13e in breast cancer (MDA-MB-231) cell line. MTT assay method was applied to assess cell viability assay. All experimental steps were conducted as reported earlier.
Part I: Biological Studies
4.3. Biological evaluation
4.3.1. Cytotoxic activity evaluation
The cytotoxic actvity of the synthesized derivatives 2a-13e was measured in MDA-MB-231 breast cancer cell line and derivatives 6 and 12 in MCF-10A […].
Cell viability assay was assessed using MTT assay method. Cells at density of 1 x 104 were seeded in a 96-well plate at 37 °C for 24 h under 5% CO2. After incubation, the cells were treated with different concentrations of the test schiff bases 2a-13e and incubated for 24 h, then 20 µl of MTT solution at 5 mg/mL was applied and incubated for 4 h at 37 °C.
Dimethyl sulphoxide (DMSO) in volume of 100 µl was added to each well to dissolve the purple formazan that had formed. The color intensity of the formazan product, which represents the growth condition of the cells, is quantified by using an ELISA plate reader (EXL 800, USA) at 570 nm absorbance. The experimental conditions were carried out with at least three replicates, and the experiments were repeated at least three times. […]

With `COc1cc(C=C2N=C(c3cc(OC)c(OC)c(OC)c3)N(C(=O)c3cccc(OC(C)=O)c3)NC2=O)cc(OC)c1OC` (hydrate or solvate) [Compound 7, 3-(6-oxo-5–(3,4,5-trimethoxybenzylidene)-3-(3,4,5-trimethoxyphenyl)-1,2,5,6-tetrahydro-1,2,4-triazine-2-carbonyl)phenyl acetate] the melting point was 199 to 201 °C.

Work on `COc1cc(C=C2N=C(c3cc(OC)c(OC)c(OC)c3)N(C(N)=S)NC2=O)cc(OC)c1OC` (hydrate or solvate) [Compound 9, 6-oxo-5-(3,4,5-trimethoxybenzylidene)-3-(3,4,5-trimethoxyphenyl)-5,6-dihydro-1,2,4-triazine-2(1H)-carbothioamide] yielded a melting point of 239 to 241 °C.

`COc1cc(C=C(NC(=O)c2cc(OC)c(OC)c(OC)c2)C(=O)NNC(=O)c2cccc(O)c2)cc(OC)c1OC` [Compound 2a, N-(3-(2-(3-hydroxybenzoyl)hydrazinyl)-3-oxo-1-(3,4,5-trimethoxyphenyl)prop-1-en-2-yl)-3,4,5-trimethoxybenzamide] showed an IC50 (MDA-MB-231) of 21.7 ± 1.17 µM and a melting point of 241 to 243 °C.

In the case of `COc1cc(C=C(NC(=O)c2cc(OC)c(OC)c(OC)c2)C(=O)NNC(=O)c2ccc(Br)cc2)cc(OC)c1OC` [Compound 2b, N-(3-(2-(4-bromobenzoyl)hydrazinyl)-3-oxo-1-(3,4,5-trimethoxyphenyl)prop-1-en-2-yl)-3,4,5-trimethoxybenzamide], the IC50 (MDA-MB-231) is reported as 39.7 ± 1.8 µM and the melting point is reported as 236 to 238 °C.

`COc1cc(C=C(NC(=O)c2cc(OC)c(OC)c(OC)c2)C(=O)NNC(=O)c2ccncc2)cc(OC)c1OC` [Compound 2c, N-(3-(2-isonicotinoylhydrazinyl)-3-oxo-1-(3,4,5-trimethoxyphenyl)prop-1-en-2-yl)-3,4,5-trimethoxybenzamide] showed an IC50 (MDA-MB-231) of 13.2 ± 0.71 µM and a melting point of 227 to 229 °C.

With `COc1cc(C=C(NC(=O)c2cc(OC)c(OC)c(OC)c2)C(=O)NNC(=S)Nc2ccccc2)cc(OC)c1OC` [Compound 3, 3,4,5-trimethoxy-N-(3-oxo-3-(2-(phenylcarbamothioyl)hydrazinyl)-1-(3,4,5-trimethoxyphenyl)prop-1-en-2-yl)benzamide] the IC50 (MDA-MB-231) was 14.9 ± 0.8 µM and the melting point was 212 to 214 °C.

Molecule `COc1cc(C=C2N=C(c3cc(OC)c(OC)c(OC)c3)NC2=O)cc(OC)c1OC` [Compound 4, 4-(3,4,5-trimethoxybenzylidene)-2-(3,4,5-trimethoxyphenyl)-1H-imidazol-5(4H)-one] has an IC50 (MDA-MB-231) of 36.8 ± 2.81 µM and a melting point of 212 to 214 °C.

For `COc1cc(C=C2N=C(c3cc(OC)c(OC)c(OC)c3)N(N)C2=O)cc(OC)c1OC` [Compound 5, 1-amino-4-(3,4,5-trimethoxybenzylidene)-2-(3,4,5-trimethoxyphenyl)-1H-imidazol-5(4H)-one], the IC50 (MDA-MB-231) was 57.1 ± 3.23 µM and the melting point was 205 to 207 °C.

Molecule `COc1cc(C=C2N=C(c3cc(OC)c(OC)c(OC)c3)N(C(=O)c3cccc(OC(C)=O)c3)NC2=O)cc(OC)c1OC` [Compound 7, 3-(6-oxo-5–(3,4,5-trimethoxybenzylidene)-3-(3,4,5-trimethoxyphenyl)-1,2,5,6-tetrahydro-1,2,4-triazine-2-carbonyl)phenyl acetate] has an IC50 (MDA-MB-231) of 13.7 ± 1.04 µM.

Molecule `COc1cc(C=C(NC(=O)c2cc(OC)c(OC)c(OC)c2)C(=O)NNC(N)=S)cc(OC)c1OC` [Compound 8, N-(3-(2-carbamothioylhydrazinyl)-3-oxo-1-(3,4,5-trimethoxyphenyl)prop-1-en-2-yl)-3,4,5-trimethoxybenzamide] has an IC50 (MDA-MB-231) of 31.5 ± 1.82 µM.

`COc1cc(C=C2N=C(c3cc(OC)c(OC)c(OC)c3)N(C(N)=S)NC2=O)cc(OC)c1OC` [Compound 9, 6-oxo-5-(3,4,5-trimethoxybenzylidene)-3-(3,4,5-trimethoxyphenyl)-5,6-dihydro-1,2,4-triazine-2(1H)-carbothioamide] showed an IC50 (MDA-MB-231) of 4.14 ± 0.22 µM.

With `CCOC(=O)Cc1csc(NNC(=O)C(=Cc2cc(OC)c(OC)c(OC)c2)NC(=O)c2cc(OC)c(OC)c(OC)c2)n1` [Compound 10, ethyl 2-(2-(2-(2-(3,4,5-trimethoxybenzamido)-3-(3,4,5-trimethoxyphenyl)acryloyl)hydrazinyl)thiazol-4-yl)acetate] the IC50 (MDA-MB-231) was 4.8 ± 0.21 µM and the melting point was 210 to 212 °C.

In the case of `COc1cc(C(=O)N/C=C(\C(=O)NNc2nc(-c3ccccc3)cs2)c2cc(OC)c(OC)c(OC)c2)cc(OC)c1OC` [Compound 11a, 3,4,5-Trimethoxy-N-(3-oxo-3-(2-(4-arylthiazol-2-yl)hydrazinyl)-1-(3,4,5-trimethoxyphenyl)prop-1-en-2-yl)benzamide], the IC50 (MDA-MB-231) is reported as 6.21 ± 0.47 µM and the melting point is reported as 212 to 214 °C.

For `COc1cc(C=C(NC(=O)c2cc(OC)c(OC)c(OC)c2)C(=O)NNc2nc(-c3ccc(Cl)cc3)cs2)cc(OC)c1OC` [Compound 11b, N-(3-(2-(4-(4-chlorophenyl)thiazol-2-yl)hydrazinyl)-3-oxo-1-(3,4,5-trimethoxyphenyl)prop-1-en-2-yl)-3,4,5-trimethoxybenzamide], the IC50 (MDA-MB-231) was 8.59 ± 2.38 µM and the melting point was 212 to 214 °C.

For `COc1cc(C=C(NC(=O)c2cc(OC)c(OC)c(OC)c2)C(=O)NNc2nc(-c3ccc(Br)cc3)cs2)cc(OC)c1OC` [Compound 11c, N-(3-(2-(4-(4-bromophenyl)thiazol-2-yl)hydrazinyl)-3-oxo-1-(3,4,5-trimethoxyphenyl)prop-1-en-2-yl)-3,4,5-trimethoxybenzamide], the IC50 (MDA-MB-231) was 25.7 ± 1.9 µM and the melting point was 212 to 214 °C.

`COc1cc(C=C(NC(=O)c2cc(OC)c(OC)c(OC)c2)C(=O)NNc2nc(-c3cccc([N+](=O)[O-])c3)cs2)cc(OC)c1OC` [Compound 11d, 3,4,5-Trimethoxy-N-(3-(2-(4-(3-nitrophenyl)thiazol-2-yl)hydrazinyl)-3-oxo-1–(3,4,5-trimethoxyphenyl)prop-1-en-2-yl)benzamide] showed an IC50 (MDA-MB-231) of 12.2 ± 0.65 µM and a melting point of 212 to 214 °C.

`COc1cccc(-c2csc(NNC(=O)C(=Cc3cc(OC)c(OC)c(OC)c3)NC(=O)c3cc(OC)c(OC)c(OC)c3)n2)c1` [Compound 11e, 3,4,5-Trimethoxy-N-(3-(2-(4-(3-methoxyphenyl)thiazol-2-yl)hydrazinyl)-3-oxo-1–(3,4,5-trimethoxyphenyl)prop-1-en-2-yl)benzamide] showed an IC50 (MDA-MB-231) greater than 100 µM and a melting point of 212 to 214 °C.

Molecule `COc1cc(C=C2N=C(c3cc(OC)c(OC)c(OC)c3)N(c3nc(-c4ccccc4)cs3)NC2=O)cc(OC)c1OC` [Compound 13a, 2-(4-Phenylthiazol-2-yl)-5-(3,4,5-trimethoxybenzylidene)-3–(3,4,5-trimethoxyphenyl)-1,2-dihydro-1,2,4-triazin-6(5H)-one] has an IC50 (MDA-MB-231) of 19.6 ± 1.42 µM and a melting point of 212 to 214 °C.

`COc1cc(C=C2N=C(c3cc(OC)c(OC)c(OC)c3)N(c3nc(-c4ccc(Cl)cc4)cs3)NC2=O)cc(OC)c1OC` [Compound 13b, 2-(4-(4-Chlorophenyl)thiazol-2-yl)-5-(3,4,5-trimethoxybenzylidene)-3-(3,4,5-trimethoxyphenyl)-1,2-dihydro-1,2,4-triazin-6(5H)-one] showed an IC50 (MDA-MB-231) of 20.7 ± 1.58 µM and a melting point of 212 to 214 °C.

Molecule `COc1cc(C=C2N=C(c3cc(OC)c(OC)c(OC)c3)N(c3nc(-c4ccc(Br)cc4)cs3)NC2=O)cc(OC)c1OC` [Compound 13c, 2-(4-(4-Bromophenyl)thiazol-2-yl)-5-(3,4,5-trimethoxybenzylidene)-3-(3,4,5-trimethoxyphenyl)-1,2-dihydro-1,2,4-triazin-6(5H)-one] has an IC50 (MDA-MB-231) of 10.1 ± 0.54 µM and a melting point of 212 to 214 °C.

With `COc1cc(C=C2N=C(c3cc(OC)c(OC)c(OC)c3)N(c3nc(-c4cccc([N+](=O)[O-])c4)cs3)NC2=O)cc(OC)c1OC` [Compound 13d, 2-(4-(3-Nitrophenyl)thiazol-2-yl)-5-(3,4,5-trimethoxybenzylidene)-3-(3,4,5-trimethoxyphenyl)-1,2-dihydro-1,2,4-triazin-6(5H)-one] the IC50 (MDA-MB-231) was 3.16 ± 0.17 µM and the melting point was 212 to 214 °C.

Work on `COc1cccc(-c2csc(N3NC(=O)C(=Cc4cc(OC)c(OC)c(OC)c4)N=C3c3cc(OC)c(OC)c(OC)c3)n2)c1` [Compound 13e, 2-(4-(3-Methoxyphenyl)thiazol-2-yl)-5-(3,4,5-trimethoxybenzylidene)-3-(3,4,5-trimethoxyphenyl)-1,2-dihydro-1,2,4-triazin-6(5H)-one] yielded an IC50 (MDA-MB-231) of 33.5 ± 2.47 µM and a melting point of 212 to 214 °C.
